Laboratory results taken from patent US20130274196A1, “METHOD FOR TREATMENT OF INFLAMMATORY DISEASE AND DISORDER” (HEALOR LTD., priority 2010, published 2013).
Values joined by “and” are separate entries in the source; they are usually repeats but may differ in a detail not shown here. Equal values may be shown once. “Also recorded” adds a separate entry of the source. The star is where a group is joined. Palmitoyl = CCCCCCCCCCCCCCCC(=O)*; Myristoyl = CCCCCCCCCCCCCC(=O)*

Legend:
keratinocytes = experiment: Cytokine secretion in LPS, TNFα or IL-17 activated keratinocytes treated with peptide PKCα inhibitors (ELISA); assay type: cell-based, BALB/C mice; conditions: for cytokine secretion in keratinocytes: stimulated by LPS, TNFα, or IL-17, medium collected after 48 hr
Protocol: To determine their effects, keratinocytes were derived from newborn BALB/C mice skin. The cells were incubated for 5 days in 24 wells plate. Cells were then incubated with PBS −/− as control or stimulated by LPS, TNFα, or IL-17. PKCα inhibitors were added as indicated. Medium containing secreted cytokines was collected after 48 hr and analyzed using ELISA. FIG. 50 is a tabular summary of cytokine secretion.

EAE mice = experiment: Experimental allergic encephalomyelitis (EAE), MOG35-55/CFA immunized mice; assay type: in vivo, C57BL/6J mice; conditions: for Score on day 18 / Score on day 29 / Score on day 37: EAE scale 0-6; for EAE score on the initial day: scale 0-6; for Number of dead mice during 49 days: n=7
[1] = system: STZ-induced diabetic C57BL/6J mice; experiment: Wound healing in STZ-induced diabetic mice; assay type: in vivo
Protocol: Full thickness skin incisions (20 mm) were performed on the upper back of anesthetized streptozocin (STZ)-injected (175 mg/kg body weight) diabetic, citrate buffer injected (6 mice/group) non-diabetic, and non-injected (6 mice/group), C57BL/6J mice. Periodical blood glucose monitoring was performed by measuring glucose levels from tail vein after STZ injection. […] Following incision, STZ-induced diabetic wounds were treated daily by application of PBS (7/6 mice/group), insulin (0.1 units/ml) (6 mice/group), the PKCa inhibitor of SEQ ID NO:6 (1 μg/ml) (7/5 mice/group) or a formulation (herein designated HO/03/03) containing insulin and the N-myristoylated PKCα inhibitor of SEQ ID NO: 6 (7/6 mice/group) directly to the surgical dressing. Biopsies were collected 9 days post-wounding. Wounds were excised from euthanized animals for evaluation of wound-healing parameters by histology and immunohistochemistry.
Wounds were assessed for epidermal closure by Keratin 14 staining. Wounds were considered closed when complete epidermal staining was observed across the wound gap. Dermal contraction was considered when both dermal edges were visible in a fixed field ×100 magnification utilizing H&E staining. Epidermal differentiation was assessed by Keratin 1 staining.
The organization of hypodermis was assessed by the presence (or absence) of hypodermis at both wound edges. Granulation tissue formation was assessed by the presence of fibroblasts and collagen fibers in the wound bed. The wound was considered positive for granulation tissue formation when a continuous layer of granulation tissue was present in the wound gap. In addition, we have defined 3 specific histological parameters characterizing severe inflammation of diabetic wounds: (i) abscess formation at the wounded area, (ii) excessive leukocytosis (>100 cells in a fixed field (×200)) and (iii) high white blood cells (WBC)/red blood cells (RBC) ratio within the blood vessels shown in a fixed field (×200). When at least 2 of these parameters are present at the wound gap, the wound is considered severely inflamed.

C57BL mice [2] = experiment: Incision wounds treated 7 days, histological analysis (Example 9); assay type: in vivo
Protocol: Wounds were performed on the back of 8-10 week old C57BL mice by incision and were treated daily for 7 days with either vehicle (PBS) control or with 1 μM insulin (Humulin, Eli Lilly, USA) or a mixture of 1 μM insulin combined with 1 μM of the PKCα inhibitor of SEQ ID NO: 6. Seven days after wounding all mice were sacrificed and treated wounds were histologically analyzed for proliferative capacity of the epidermis (proliferating cell nuclear antigen-PCNA), angiogenesis, inflammation, epidermal cells and the remodeling processes at the wound gap.

C57BL mice [3] = experiment: Incision wounds treated 7 days, severe inflammation incidence (Example 10); assay type: in vivo; conditions: 1 μM daily for 7 days
Protocol: Wounds were performed on the back of C57BL mice by incision and were treated daily for 7 days with: (i) PBS, control; (ii) 1 μM of the PKCα inhibitor of SEQ ID NO: 6; (iii) 1 μM insulin (Humulin, Eli Lilly, USA); or (iv) a mixture of 1 μM PKCα inhibitor and 1 μM insulin.

[4] = 9-days post wounding, percent of wounds in group, insulin 0.1 units, HO/02 1 ug/ml
[5] = 9-days post wounding, percent of wounds in group, insulin 0.1 units, SEQ ID NO: 6 1 ug/ml
[6] = individual wounds, 1 μM daily for 7 days, listed as Insulin only

H-Phe-Ala-Arg-Lys-Gly-Ala-Leu-Arg-Gln-OH (H-FARKGALRQ-OH) [AWOT-1]
cytokine secretion in keratinocytes (keratinocytes): effective in decreasing cytokine secretion

Myristoyl-Thru-Arg-Lys-Arg-Gln-Arg-Ala-Met-Arg-Arg-Arg-Val-His-Gln-Ile-Asn-Gly-OH (Myristoyl-TRKRQRAMRRRVHQING-OH; SMILES CCCCCCCCCCCCCC(=O)N[C@H](C(=O)N[C@@H](CCCNC(=N)N)C(=O)N[C@@H](CCCCN)C(=O)N[C@@H](CCCNC(=N)N)C(=O)N[C@@H](CCC(N)=O)C(=O)N[C@@H](CCCNC(=N)N)C(=O)N[C@@H](C)C(=O)N[C@@H](CCSC)C(=O)N[C@@H](CCCNC(=N)N)C(=O)N[C@@H](CCCNC(=N)N)C(=O)N[C@@H](CCCNC(=N)N)C(=O)N[C@H](C(=O)N[C@@H](Cc1c[nH]cn1)C(=O)N[C@@H](CCC(N)=O)C(=O)N[C@H](C(=O)N[C@@H](CC(N)=O)C(=O)NCC(=O)O)[C@@H](C)CC)C(C)C)[C@@H](C)O) [MPE-1]
The initial day (of illness signs) (EAE mice; 0.1 mg/kg): 11 days
EAE severity / score compared to control group (EAE mice; 0.1 mg/kg (0.1 μg/ml)): reduced EAE severity
Score on day 18 (EAE mice; 0.1 mg/kg): 2.857
Score on day 29 (EAE mice; 0.1 mg/kg): 1.929
Score on day 37 (EAE mice; 0.1 mg/kg): 1.429
EAE score on the initial day (EAE mice; 0.1 mg/kg): 0.429
The initial day (of illness signs) (EAE mice; 1 mg/kg): 10 days
Number of dead mice during 49 days (EAE mice; 1 mg/kg i.p. three times a week): 4
Score on day 18 (EAE mice; 1 mg/kg): 3.071
Score on day 29 (EAE mice; 1 mg/kg): 4.286
Score on day 37 (EAE mice; 1 mg/kg): 4.286
EAE score on the initial day (EAE mice; 1 mg/kg): 0.429
average group score at the end of the experiment (day 42) (EAE mice; concentration of 0.1 μg/ml, control group score 2.86): 2.00

Insulin: insulin (Humulin, Eli Lilly, USA)
Dermal closure (H&E) [1, 4]: 0%
Epidermal closure (K14) [1, 4]: 17%
Epidermal differentiation (Kl) [1, 4]: 0%
Granulation tissue [1, 5]: 40%
Hypodermis [1, 5]: 10%
Severe inflammation [1, 5]: 100%
overall healing effect in diabetic wounds ([1]; 9 days post-wounding): only partial healing effects
adverse side effects at the wound (C57BL mice [2]; 1 μM daily for 7 days): increased inflammation, hyperplasia of epidermal cells, delayed differentiation of the spinous layer of epidermal cells and increased scarring
incidence of abnormal angiogenesis in the wound area (C57BL mice [2]; 1 μM daily for 7 days, PBS control 25%): 60%
Proliferative capacity of the epidermis (layers of basal cells, PCNA), average (C57BL mice [2]; group average, N = 5, 1 μM daily for 7 days): average 6.4
Angiogenesis (C57BL mice [2]; [6]): high abnormal; also recorded: normal
Proliferative capacity of the epidermis (layers of basal cells, PCNA) (C57BL mice [2]; [6]): 8 (2×) and 6 and 5 (2×)
anti-inflammatory effect on wounds (C57BL mice [3]): no anti-inflammatory effect
Incidence of severe inflammation in wound (%) (C57BL mice [3]; PBS control 60): 56%

H-Thr-Leu-Asn-Pro-Gln-Trp-Glu-Ser-OH (H-TLNPQWES-OH) [AIP-1]
cytokine secretion in keratinocytes (keratinocytes): effective in decreasing cytokine secretion

Myristoyl-Phe-Ala-Arg-Lys-Gly-Ala-Leu-OH-trifluoracetate salt (Myristoyl-FARKGAL-OH; also: trifluoroacetate salt) [AIP-2]
cytokine secretion in keratinocytes (keratinocytes): effective in decreasing cytokine secretion

Palmitoyl-Phe-Ala-Arg-Lys-Gly-Ala-Leu-Arg-Gln-OH-acetate salt (Palmitoyl-FARKGALRQ-OH; also: acetate salt) [PPDY-1]
cytokine secretion in keratinocytes (keratinocytes): effective in decreasing cytokine secretion

CRAMP [reference compound]
The initial day (of illness signs) (EAE mice; 0.2 mg/kg): 10 days
Number of dead mice during 49 days (EAE mice; 0.2 mg/kg i.p. three times a week): 2
Score on day 18 (EAE mice; 0.2 mg/kg): 3.214
Score on day 29 (EAE mice; 0.2 mg/kg): 2.000
Score on day 37 (EAE mice; 0.2 mg/kg): 2.571
EAE score on the initial day (EAE mice; 0.2 mg/kg): 0.571
The initial day (of illness signs) (EAE mice; 2 mg/kg): 11 days
Number of dead mice during 49 days (EAE mice; 2 mg/kg i.p. three times a week): 2
Score on day 18 (EAE mice; 2 mg/kg): 2.643
Score on day 29 (EAE mice; 2 mg/kg): 2.643
Score on day 37 (EAE mice; 2 mg/kg): 2.143
EAE score on the initial day (EAE mice; 2 mg/kg): 0.143

Myristoyl-Phe-Ala-Arg-Lys-Gly-Ala-Leu-OH (Myristoyl-FARKGAL-OH; SMILES CCCCCCCCCCCCCC(=O)N[C@@H](Cc1ccccc1)C(=O)N[C@@H](C)C(=O)N[C@@H](CCCNC(=N)N)C(=O)N[C@@H](CCCCN)C(=O)NCC(=O)N[C@@H](C)C(=O)N[C@@H](CC(C)C)C(=O)O) [MPDY-1 sh]
cytokine secretion from IL-17A activated keratinocytes (keratinocytes): decrease cytokine secretion
cytokine secretion from LPS and TNFα activated keratinocytes (keratinocytes): decrease cytokine secretion

H-Phe-Ala-Arg-Lys-Gly-Ala-Leu-Arg-Gln-OH-acetate salt (H-FARKGALRQ-OH; also: acetate salt) [PDY-1]
cytokine secretion from IL-17A activated keratinocytes (keratinocytes): decrease cytokine secretion
cytokine secretion from LPS and TNFα activated keratinocytes (keratinocytes): decrease cytokine secretion
